Experimental data as given in publication PMC11222147, “Host defence peptide plectasin targets bacterial cell wall precursor lipid II by a calcium-sensitive supramolecular mechanism” (Nature Microbiology, 2024).
Values after ≈ are worked out from the molar mass of the structure shown.

Tests used:
[1] = HS-AFM oligomerization on supported lipid bilayers doped with lipid II; settings: DOPC/DOPG (1:1), 1% lipid II, 1 mM Ca^2+
Experimental: HS-AFM imaging was performed on a supported lipid bilayer deposited on mica using an amplitude modulation tapping mode HS-AFM from RIBM (Ando type)[11]. The lipid compositions are as stated in the experimental conditions of the corresponding results. Short cantilevers (∼7 μm) with a nominal spring constant of 0.15 N m^−1 were used (USC-F1.2-k0.15, NanoWorld) for all experiments. A minimal imaging force was applied by using a small set-point amplitude, typically 80% of the free amplitude (for 1–2 nm of free amplitude). […] Imaging was started on the lipid bilayer surface in recording buffer. […] All reported experiments were repeated for at least three times for each condition. Image analysis was done using Igor Pro version 6.22 (Wavemetrics) with RIBM script and ImageJ version 1.501 with minimal image corrections (tilt, drift and background corrections). The time stamps on HS-AFM videos are relative to plectasin addition into the liquid chamber. Image acquisition rate varied from 0.5 frames per second to 2 frames per second (see the figure/video legends).

S. simulans 22 = assay: MIC assays under standard conditions; assay type: cell-based, Staphylococcus simulans
Outline: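 Broth microdilution in cation-adjusted MHB, inoculum from OD600 0.5 TSB culture diluted 100-fold, 37 °C with shaking. Streptococci: 5% lysed horse blood, 5% CO2, MIC read visually at 20–24 h; S. simulans read at 16–20 h.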

[2] = ITC of bivalent cation binding to plectasin in solution; settings: mean of duplicate, read-out: Kd, Mg^2+ binding to plectasin (ITC)
mammalian cells = settings: cited from earlier work
S. pyogenes M3 = assay: MIC assays under standard conditions; assay type: cell-based, Streptococcus pyogenes; settings: Supplementary Table 1; cation-adjusted MHB + 5% lysed horse blood, 5% CO2, 20–24 h
Experimental: Plectasin and analogues were serially diluted in cation-adjusted Mueller–Hinton broth (MHB) in round-bottom polypropylene 96-well plates (50 µl per well). Selected bacterial strains were grown from glycerol stocks on blood agar plates. Individual colonies were inoculated in TSB and incubated at 37 °C while shaking until OD600 reached 0.5. Bacterial suspensions were then diluted 100 times in cation-adjusted MHB and distributed (50 μl per well) over the microplate containing the diluted plectasin solutions. Plates were covered by a gas-permeable adhesive membrane and incubated at 37 °C while shaking. MICs were determined by visual inspection after 16–20 h (Staphylococcus) or 20–24 h (Streptococcus). For Streptococcus strains, the broth was additionally supplemented with 5% lysed horse blood, and the microplates were incubated under 5% CO2 atmosphere. In the assays, we used the following strains: S. simulans, S. pneumoniae serotype 8, S. pneumoniae ATCC6305 and Streptococcus pyogenes M3.

[3] = Confocal microscopy of GUVs doped with Und-NBD-lipid II; settings: GUVs 0.4 mol% Und-NBD-LII in DOPC, 1 μM antibiotic
Experimental: GUVs were prepared by electroformation using in-house build Teflon cells with two titanium wires as electrodes. About 1 μl of 0.5 mM DOPC with 0.4 mol% NBD–lipid II in 2:1 CHCl3/MeOH was brushed on both electrodes and thoroughly dried under vacuum. Next, the cell was filled with 350 μl 300 mM sucrose, and GUVs were formed by applying an oscillating voltage (sine wave, 2 V, 10 Hz) for 90 min and released from the electrodes (square wave, 2 V, 2 Hz). Microscopy slides were precoated using a 1 mg ml^−1 BSA solution. Slides were filled with 300 μl 300 mM glucose solution, followed by addition of the antibiotic and finally 30–50 μl GUV solution. The GUVs were imaged using a Zeiss LSM 880 confocal microscope with a ×63/1.2NA glycerol objective lens. Green fluorescence (530–545 nm) was detected after excitation with a 488 nm laser.

CC[C@H](C)[C@@H]1NC(=O)[C@H](CO)NC(=O)[C@H](CCCCN)NC(=O)[C@@H]2CSSC[C@@H](C(=O)N[C@@H](Cc3ccc(O)cc3)C(=O)O)NC(=O)[C@H](CCCCN)NC(=O)[C@@H]3CSSC[C@H](NC(=O)[C@H](CCC(N)=O)NC(=O)[C@H](CCSC)NC(=O)[C@H](CC(=O)O)NC(=O)[C@H](CC(=O)O)NC(=O)[C@H](CCC(=O)O)NC(=O)[C@H](CC(=O)O)NC(=O)[C@H](Cc4c[nH]c5ccccc45)NC(=O)[C@@H]4CCCN4C(=O)CNC(=O)[C@H](CC(N)=O)NC(=O)[C@@H](NC(=O)CNC(=O)[C@H](Cc4ccccc4)NC(=O)CN)CSSC[C@H](NC(=O)[C@H](Cc4ccc(O)cc4)NC(=O)CNC(=O)CNC(=O)[C@H](CCCCN)NC(=O)[C@H](Cc4ccc(O)cc4)NC(=O)CNC(=O)[C@H](CCCCN)NC1=O)C(=O)N[C@@H](C)C(=O)N[C@@H](CCCCN)C(=O)NCC(=O)NCC(=O)N[C@@H](Cc1ccccc1)C(=O)N[C@@H](C(C)C)C(=O)N3)C(=O)N[C@@H](Cc1c[nH]cn1)C(=O)N[C@@H](CC(N)=O)C(=O)N[C@@H](Cc1c[nH]cn1)C(=O)N2 [Plectasin wt]
plectasin concentration giving full coverage (AFM) [1]: 400 nM | plectasin concentration giving partial coverage (AFM) [1]: 300 nM | plectasin concentration above which supra-structures emerge (AFM) ([1]; 10 min after addition): > 200 nM | Minimum inhibitory concentration, S. simulans (S. simulans 22; Supplementary Table 1, cation-adjusted MHB, 37 °C, 16–20 h): 0,78 μg/mL | MIC expressed as plectasin concentration (S. simulans 22; corresponding to 0.78 µg ml^−1): 0.177 µM (≈ 0.779 µg/mL) | Kd [2]: 195 ± 35 nM | toxicity against mammalian cells (mammalian cells): lack of plectasin toxicity against mammalian cells | Minimum inhibitory concentration, S. pyogenes M3 (S. pyogenes M3): ≤ 0,012 μg/mL | lipid II cluster/domain formation on GUVs [3]: cluster formation
